Experimental data from paper PMC3149649, “Evidence for a Two-Metal-Ion Mechanism in the Cytidyltransferase KdsB, an Enzyme Involved in Lipopolysaccharide Biosynthesis” (PLoS ONE, 2011).

Tests used:
[1] = biological target: T1, AA-LCKS (LPS-specific CMP-Kdo synthetase, KdsB) (Aquifex aeolicus, UniProt O66914); test: discontinuous Kdo activation assay, CTP replaced by UTP; format: biochemical; details: co-substrate Kdo; glycine-NaOH pH 9.0 or HEPES-NaOH pH 7.5; 80°C
T1 construct: recombinant from plasmid pT7-kdsB in E. coli BL21-CodonPlus(DE3)-RIL; no tag mentioned; monomer 27 kDa, gel filtration 53 kDa, homodimer
T1 sequence (O66914 whole entry): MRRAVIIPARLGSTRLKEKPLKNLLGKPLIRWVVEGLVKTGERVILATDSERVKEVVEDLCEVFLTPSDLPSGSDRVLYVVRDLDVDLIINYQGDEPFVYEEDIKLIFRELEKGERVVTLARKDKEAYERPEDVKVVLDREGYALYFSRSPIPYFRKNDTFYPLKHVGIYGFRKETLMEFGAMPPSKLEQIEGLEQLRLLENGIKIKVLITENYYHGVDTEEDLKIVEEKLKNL

[2] = biological target: T1, AA-LCKS (LPS-specific CMP-Kdo synthetase, KdsB); test: X-ray crystal structure, […] Å; format: binding; details: co-crystallised with 1 mM CTP; two Mg2+ (Mg-A, Mg-B) in active site; pH 7.5; 19°C

| Structure (SMILES) | discontinuous Kdo activation assay, CTP replaced by UTP [1] | X-ray crystal structure, 2.10 Å [2] |
| --- | --- | --- |
| O=c1ccn([C@@H]2O[C@H](COP(=O)(O)OP(=O)(O)OP(=O)(O)O)[C@@H](O)[C@H]2O)c(=O)[nH]1 [UTP] | AA-LCKS was able to utilize UTP for Kdo activation but not ATP or GTP |  |
| Nc1ccn([C@@H]2O[C@H](COP(=O)(O)OP(=O)(O)OP(=O)(O)O)[C@@H](O)[C@H]2O)c(=O)n1 [CTP] |  | The CTP substrate is bound to the N-terminal domain in each molecule of AA-LCKS |
